Test results: patent publication US20210292320A1, “FUNCTIONALIZED HETEROCYCLIC COMPOUNDS AS ANTIVIRAL AGENTS” (Enanta Pharmaceuticals, Inc., priority 2020, published 2021)

Legend:
[1] = system: HBV viral product accumulation in 2.2.15 cells; test: HBV antiviral activity in 2.2.15 cells (qPCR of cell lysates or HBsAg/HBeAg ELISA of supernatants, day 5); format: cell-based; details: Hepatitis B virus, 120 h, 5 days treatment, 0.5% DMSO, 50% reduction of viral product accumulation relative to no drug controls, irrespective of readout
Description: 2.2.15 cells are passaged upon attaining confluency in DMEM/F12 media in the presence of 10% FBS, Penn/Strep, and 250 ug/mL G418. Novel compounds are 5 fold serially diluted in DMSO and added to 96 well plates containing 35,000 cells/well at a 1:200 dilution so that the final concentration of DMSO is 0.5%. On day 5, post treatment cell lysates and supernatants are harvested for analysis.
Cells are lysed using Agilent Sidestep Lysis buffer, diluted 1:100 and quantified via quantitative real time PCR. Commercially available ELISA kits are used to quantitate the viral proteins HBsAg (Alpco) or HBeAg (US Biological) by following the manufacturer's recommended protocol after diluting samples to match the linear range of their respective assays. Irrespective of readout, compound concentrations that reduce viral product accumulation in the cell lysates or supernatants by 50% relative to no drug controls (EC50) are reported; EC50 ranges are as follows: A<0.1 μM; B 0.2-1 μM; C>1 μM.

[2] = Compound induced cellular toxicity in HepG2 cells (ATPlite 1Step, total ATP levels, day 3); format: cell-based; details: human, three days, 0.5% DMSO, 50% reduction of total ATP levels relative to no drug controls
Description: At day 3, post seeding cells are treated with ATPlite 1Step according to the manufacturer's instructions.

SMILES | EC50 [1] | CC50 at 3 days [2]
CC(C)(C)[C@@H]1Cn2nc(-c3cccc(F)c3)c(-c3cccc(F)c3)c2-c2cc(O)c(C(=O)O)cc21 [Example 5, (S)-6-(tert-butyl)-1,2-bis(3-fluorophenyl)-9-hydroxy-5,6-dihydropyrazolo[5,1-a]isoquinoline-8-carboxylic acid] | > 1000 nM | 
CC(C)(C)[C@@H]1Cn2nc(-c3cccc(F)c3)cc2-c2cc(O)c(C(=O)O)cc21 [Example 4, (S)-6-(tert-butyl)-2-(3-fluorophenyl)-9-hydroxy-5,6-dihydropyrazolo[5,1-a]isoquinoline-8-carboxylic acid] | > 1000 nM | 
CC(C)(C)[C@@H]1Cn2nc(-c3ccoc3)c(-c3ccoc3)c2-c2cc(O)c(C(=O)O)cc21 [Example 9, (S)-6-(tert-butyl)-1,2-di(furan-3-yl)-9-hydroxy-5,6-dihydropyrazolo[5,1-a]isoquinoline-8-carboxylic acid] | > 1000 nM | 
CC(C)(C)[C@@H]1Cn2nc(-c3ccccc3)cc2-c2cc(O)c(C(=O)O)cc21 [Example 2, (S)-6-(tert-butyl)-9-hydroxy-2-phenyl-5,6-dihydropyrazolo[5,1-a]isoquinoline-8-carboxylic acid] | > 1000 nM | 
CC(C)(C)[C@@H]1Cn2nc(-c3ccccc3)c(-c3ccccc3)c2-c2cc(O)c(C(=O)O)cc21 [Example 8, (S)-6-(tert-butyl)-9-hydroxy-1,2-diphenyl-5,6-dihydropyrazolo[5,1-a]isoquinoline-8-carboxylic acid] | < 100 nM | > 25000 nM
CC(C)(C)[C@@H]1Cn2nc(-c3ccccc3F)c(-c3ccccc3F)c2-c2cc(O)c(C(=O)O)cc21 [Example 7, (S)-6-(tert-butyl)-1,2-bis(2-fluorophenyl)-9-hydroxy-5,6-dihydropyrazolo[5,1-a]isoquinoline-8-carboxylic acid] | < 100 nM | > 25000 nM
CC(C)(C)[C@@H]1Cn2nc(-c3ccccc3F)cc2-c2cc(O)c(C(=O)O)cc21 [Example 3, (S)-6-(tert-butyl)-2-(2-fluorophenyl)-9-hydroxy-5,6-dihydropyrazolo[5,1-a]isoquinoline-8-carboxylic acid] | > 1000 nM | 
CC(C)(C)[C@@H]1Cn2nc(-c3ccc(F)cc3)cc2-c2cc(O)c(C(=O)O)cc21 [Example 1, (S)-6-(tert-butyl)-2-(4-fluorophenyl)-9-hydroxy-5,6-dihydropyrazolo[5,1-a]isoquinoline-8-carboxylic acid] | > 1000 nM | 
CC(C)(C)[C@@H]1Cn2nc(-c3ccc(F)cc3)c(-c3ccc(F)cc3)c2-c2cc(O)c(C(=O)O)cc21 [Example 6, (S)-6-(tert-butyl)-1,2-bis(4-fluorophenyl)-9-hydroxy-5,6-dihydropyrazolo[5,1-a]isoquinoline-8-carboxylic acid] | < 100 nM | > 25000 nM
